Measured values reported in US10703764B2, “Benzopiperazine compositions as BET bromodomain inhibitors” (FORMA Therapeutics, Inc., priority 2013, dated 2020).

How the values were obtained:
[1] = molecular target: T1, BRD4 BD1 (Homo sapiens, UniProt O60885); assay: AlphaScreen binding assay, BRD4 Bromodomain 1
T1 construct: made in house
In short: (§1)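 Compound dilution series were mixed with His-tagged BRD4 bromodomain and biotinylated tetra-acetylated H4 (1-21) peptide at pH 7.3 (BD1 and peptide at 50 nM, BD2 and peptide at 100 nM). Donor and acceptor beads were then added, and plates were equilibrated at least 1 h before reading. IC50 values were fitted with a four-parameter logistic model.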

[2] = molecular target: T2, BRD4 BD2 (Homo sapiens, UniProt O60885); assay: AlphaScreen binding assay, BRD4 Bromodomain 2
T2 construct: made in house
In short: as §1

[3] = tested on: MV4-11 cells; assay: Oncology cell growth assay (3-day proliferation, CellTiter-Glo); type: cell-based; details: Homo sapiens, MV4-11, 72 h, AML cell line MV4-11, 72 hours, compounds grouped by IC50 range, read-out: MV4-11 IC50 (inhibition of proliferation, gIC50)
In short: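 A 3-day proliferation test used MV4-11 cells seeded at 3000 per well with eight compound concentrations (10 μM top, 3-fold dilution) at 37° C in 5% CO2. CellTiter-Glo luminescence defined viable cell signal. A four-parameter logistic curve against DMSO and background wells gave the gIC50.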

| SMILES | IC50 [1] [nM] | IC50 [2] [nM] | IC50 [3] [nM] |
| --- | --- | --- | --- |
| CC(=O)N1c2ccc(-c3cnn(CCO)c3)cc2N(C(=O)N(C)c2ccccc2)C[C@@H]1C [Example I-1212] | > 10000 | > 500 | > 500 |
| CCS(=O)(=O)c1ccc(-c2ccc3c(c2)N(C(=O)OC2CCOCC2)C[C@H](C)N3C(C)=O)cc1 [Example I-1214] | 100 to 1000 | 50 to 500 | 100 to 500 |
| CC(=O)N1c2ccc(-c3ccc(S(=O)(=O)C4CC4)cc3)cc2N(C(=O)OC2CCCCC2)C[C@@H]1C [Example I-1215] | 100 to 1000 | 50 to 500 | 100 to 500 |
| CC(=O)N1c2ccc(-c3ccc(S(=O)(=O)C4CC4)cc3)cc2N(C(=O)OC2CCOCC2)C[C@@H]1C [Example I-1216] | 100 to 1000 | 50 to 500 | 100 to 500 |
| CC(=O)N1c2ccc(-c3ccc(S(=O)(=O)NCCO)cc3)cc2N(C(=O)OC2CCCCC2)C[C@@H]1C [Example I-1217] | 100 to 1000 | < 50 | < 100 |
| CC(=O)N1c2ccc(-c3cccc(S(N)(=O)=O)c3)cc2N(C(=O)OC2CCCCC2)C[C@@H]1C [Example I-1219] | 100 to 1000 | < 50 | < 100 |
| CC(=O)N1c2ccc(-c3cccc(S(N)(=O)=O)c3)cc2N(C(=O)OC2CCOCC2)C[C@@H]1C [Example I-1220] | 100 to 1000 | 50 to 500 | 100 to 500 |
| CC(=O)N1c2ccc(-c3cccc(NS(C)(=O)=O)c3)cc2N(C(=O)OC2CCCCC2)C[C@@H]1C [Example I-1221] | 100 to 1000 | 50 to 500 | 100 to 500 |
| CC(=O)N1c2ccc(-c3cccc(S(=O)(=O)N(C)C)c3)cc2N(C(=O)OC2CCOCC2)C[C@@H]1C [Example I-1224] | 100 to 1000 | 50 to 500 | 100 to 500 |
| CC(=O)N1c2ccc(-c3cccc(S(C)(=O)=O)c3)cc2N(C(=O)OC2CCCCC2)C[C@@H]1C [Example I-1225] | 100 to 1000 | 50 to 500 | 100 to 500 |
| CC(=O)N1c2ccc(-c3cccc(S(C)(=O)=O)c3)cc2N(C(=O)OC2CCOCC2)C[C@@H]1C [Example I-1226] | 100 to 1000 | 50 to 500 | > 500 |
| CCS(=O)(=O)Nc1cccc(-c2ccc3c(c2)N(C(=O)OC2CCOCC2)C[C@H](C)N3C(C)=O)c1 [Example I-1228] | 100 to 1000 | 50 to 500 | 100 to 500 |
| CC(=O)N1c2ccc(-c3ccc(S(=O)(=O)C(C)C)cc3)cc2N(C(=O)OC2CCCCC2)C[C@@H]1C [Example I-1231] | 100 to 1000 | 50 to 500 | 100 to 500 |
| CC(=O)N1c2ccc(-c3ccc(S(=O)(=O)C(C)C)cc3)cc2N(C(=O)OC2CCOCC2)C[C@@H]1C [Example I-1232] | 100 to 1000 | 50 to 500 | 100 to 500 |
| CCCS(=O)(=O)c1ccc(-c2ccc3c(c2)N(C(=O)OC2CCOCC2)C[C@H](C)N3C(C)=O)cc1 [Example I-1236] | 100 to 1000 | 50 to 500 | 100 to 500 |
| CC(=O)N1c2ccc(-c3ccc(S(=O)(=O)CC(C)C)cc3)cc2N(C(=O)OC2CCOCC2)C[C@@H]1C [Example I-1240] | 100 to 1000 | 50 to 500 | 100 to 500 |
| CC(=O)N1c2ccc(-c3ccc(S(C)(=O)=O)c(F)c3)cc2N(C(=O)OC2CCCCC2)C[C@@H]1C [Example I-1241] | 100 to 1000 | 50 to 500 | 100 to 500 |
| CC(=O)N1c2ccc(-c3ccc(S(C)(=O)=O)c(F)c3)cc2N(C(=O)OC2CCOCC2)C[C@@H]1C [Example I-1242] | 1000 to 10000 | 50 to 500 | > 500 |
| CCS(=O)(=O)c1cccc(-c2ccc3c(c2)N(C(=O)OC2CCCCC2)C[C@H](C)N3C(C)=O)c1 [Example I-1245] | 100 to 1000 | 50 to 500 | 100 to 500 |
| CC(=O)N1c2ccc(-c3cc(Cl)cc(S(C)(=O)=O)c3)cc2N(C(=O)OC2CCOCC2)C[C@@H]1C [Example I-1248] | 100 to 1000 | > 500 | 100 to 500 |
| CC(=O)N1c2ccc(-c3ccc(OCCS(C)(=O)=O)cc3)cc2N(C(=O)OC2CCCCC2)C[C@@H]1C [Example I-1251] | 100 to 1000 | 50 to 500 | 100 to 500 |
| CNS(=O)(=O)c1cccc(-c2ccc3c(c2)N(C(=O)OC2CCCCC2)C[C@H](C)N3C(C)=O)c1 [Example I-1253] | 100 to 1000 | 50 to 500 | 100 to 500 |
| CC(=O)N1c2ccc(-c3cccc(S(=O)(=O)NCCO)c3)cc2N(C(=O)OC2CCCCC2)C[C@@H]1C [Example I-1255] | 100 to 1000 | 50 to 500 | 100 to 500 |
| CCN(CC)S(=O)(=O)c1cc(-c2ccc3c(c2)N(C(=O)OC2CCOCC2)C[C@H](C)N3C(C)=O)ccc1OC [Example I-1258] | 100 to 1000 | 50 to 500 | 100 to 500 |
| CC(=O)N1c2ccc(-c3ccc(S(=O)(=O)n4cccn4)cc3)cc2N(C(=O)OC2CCCCC2)C[C@@H]1C [Example I-1259] | 100 to 1000 | 50 to 500 | 100 to 500 |

Next, values leading:

| IC50 [1] [nM] | IC50 [2] [nM] | IC50 [3] [nM] | SMILES |
| --- | --- | --- | --- |
| 100 to 1000 | 50 to 500 | 100 to 500 | CC(=O)N1c2ccc(-c3ccc(S(=O)(=O)NCCO)cc3)cc2N(C(=O)OC2CCOCC2)C[C@@H]1C [Example I-1218] |
| 100 to 1000 | 50 to 500 | 100 to 500 | CC(=O)N1c2ccc(-c3cccc(NS(C)(=O)=O)c3)cc2N(C(=O)OC2CCOCC2)C[C@@H]1C [Example I-1222] |
| 100 to 1000 | 50 to 500 | 100 to 500 | CC(=O)N1c2ccc(-c3cccc(S(=O)(=O)N(C)C)c3)cc2N(C(=O)OC2CCCCC2)C[C@@H]1C [Example I-1223] |
| 100 to 1000 | 50 to 500 | 100 to 500 | CCS(=O)(=O)Nc1cccc(-c2ccc3c(c2)N(C(=O)OC2CCCCC2)C[C@H](C)N3C(C)=O)c1 [Example I-1227] |
| 100 to 1000 | 50 to 500 | 100 to 500 | CC(=O)N1c2ccc(-c3ccc(N4CCOCC4)cc3)cc2N(C(=O)OC2CCCCC2)C[C@@H]1C [Example I-1229] |
| 100 to 1000 | 50 to 500 | 100 to 500 | CC(=O)N1c2ccc(-c3ccc(N4CCOCC4)cc3)cc2N(C(=O)OC2CCOCC2)C[C@@H]1C [Example I-1230] |
| 100 to 1000 | 50 to 500 | 100 to 500 | CC(=O)N1c2ccc(-c3ccc(S(N)(=O)=O)cc3)cc2N(C(=O)OC2CCCCC2)C[C@@H]1C [Example I-1233] |
| 100 to 1000 | 50 to 500 | 100 to 500 | CC(=O)N1c2ccc(-c3ccc(S(N)(=O)=O)cc3)cc2N(C(=O)OC2CCOCC2)C[C@@H]1C [Example I-1234] |
| 100 to 1000 | 50 to 500 | 100 to 500 | CCCS(=O)(=O)c1ccc(-c2ccc3c(c2)N(C(=O)OC2CCCCC2)C[C@H](C)N3C(C)=O)cc1 [Example I-1235] |
| 100 to 1000 | 50 to 500 | 100 to 500 | CC(=O)N1c2ccc(-c3ccc(S(=O)(=O)CC4CC4)cc3)cc2N(C(=O)OC2CCCCC2)C[C@@H]1C [Example I-1237] |
| 100 to 1000 | 50 to 500 | > 500 | CC(=O)N1c2ccc(-c3ccc(S(=O)(=O)CC4CC4)cc3)cc2N(C(=O)OC2CCOCC2)C[C@@H]1C [Example I-1238] |
| 100 to 1000 | 50 to 500 | 100 to 500 | CC(=O)N1c2ccc(-c3ccc(S(=O)(=O)CC(C)C)cc3)cc2N(C(=O)OC2CCCCC2)C[C@@H]1C [Example I-1239] |
| 100 to 1000 | 50 to 500 | 100 to 500 | CC(=O)N1c2ccc(-c3cccc(S(=O)(=O)C4CC4)c3)cc2N(C(=O)OC2CCCCC2)C[C@@H]1C [Example I-1243] |
| 100 to 1000 | 50 to 500 | 100 to 500 | CC(=O)N1c2ccc(-c3cccc(S(=O)(=O)C4CC4)c3)cc2N(C(=O)OC2CCOCC2)C[C@@H]1C [Example I-1244] |
| 100 to 1000 | 50 to 500 | 100 to 500 | CCS(=O)(=O)c1cccc(-c2ccc3c(c2)N(C(=O)OC2CCOCC2)C[C@H](C)N3C(C)=O)c1 [Example I-1246] |
| 1000 to 10000 | > 500 | > 500 | CC(=O)N1c2ccc(-c3cc(Cl)cc(S(C)(=O)=O)c3)cc2N(C(=O)OC2CCCCC2)C[C@@H]1C [Example I-1247] |
| 1000 to 10000 | 50 to 500 | 100 to 500 | CC(=O)N1c2ccc(-c3ccc(F)c(S(C)(=O)=O)c3)cc2N(C(=O)OC2CCCCC2)C[C@@H]1C [Example I-1249] |
| 1000 to 10000 | > 500 | > 500 | CC(=O)N1c2ccc(-c3ccc(F)c(S(C)(=O)=O)c3)cc2N(C(=O)OC2CCOCC2)C[C@@H]1C [Example I-1250] |
| 100 to 1000 | 50 to 500 | 100 to 500 | CC(=O)N1c2ccc(-c3ccc(OCCS(C)(=O)=O)cc3)cc2N(C(=O)OC2CCOCC2)C[C@@H]1C [Example I-1252] |
| 100 to 1000 | 50 to 500 | < 100 | CNS(=O)(=O)c1cccc(-c2ccc3c(c2)N(C(=O)OC2CCOCC2)C[C@H](C)N3C(C)=O)c1 [Example I-1254] |
| 100 to 1000 | 50 to 500 | 100 to 500 | CC(=O)N1c2ccc(-c3cccc(S(=O)(=O)NCCO)c3)cc2N(C(=O)OC2CCOCC2)C[C@@H]1C [Example I-1256] |
| 100 to 1000 | 50 to 500 | 100 to 500 | CCN(CC)S(=O)(=O)c1cc(-c2ccc3c(c2)N(C(=O)OC2CCCCC2)C[C@H](C)N3C(C)=O)ccc1OC [Example I-1257] |
